# Measurements as given in US9023370B2, “Conjugates comprising nanoparticles coated with platinum containing compounds” (priority 2008, dated 2015).
# Assays:
# A549 lung tumoral cells = experiment: Animal assay: tumour size; type: in vivo; details: SCID mice, A549 flank tumours, fifteen days; cisplatin 30 mg per Kg; example 4.1 100 ml of 1.9 mg platinum drug per litre, one intra-peritoneal dose
# Experimental: (§1) Fifteen SCID mice were choosen for the in vivo experiment. Mouse were injected 20 106 A549 lung tumoral cells in their flanks. Three random groups of five mice each were prepared. Then we waited until the tumour grew to an easily measurable size. The first group (A) was given no treatment. The second group (B) was given mild doses of commercial cisplatin (30 mg per Kg animal weight). The third group (C) was treated with the conjugates of example 4.1 with […] of 1.9 mg of platinum drug per litre in one intra-peritoneal dose. Tumour size (as a sign of therapeutical success) and animal weight (as a sign of secondary effects) were measured every three days. After fifteen days the experiments were stopped.
# [1] = set-up: species or system SCID mice; details: mouse, in vivo
# Experimental: as §1
# A549 tumor cells = experiment: MTT assay of the conjugates in tumoral cells; type: cell-based, human; details: 48 h
# Experimental: Cells were plated in a multiwell-96 plate (Iwaki) at 4×10^3 cells/well and 24 hours later the medium was changed for treatments. Tetrazolium salt 3-(4,5-dimethylthiazol-2-yl)-2,5-diphenyltetrazoliumbromide (MTT, Acros Organics) was used for mitochondrial activity evaluation in cell viability studies 24 and 48 hours post-treatments. Plates were measured in MicroPlate Reader Model 550 (BIO-RAD) and data were processed with Excel and SPSS software. Using absorbance measurements [time zero, (Az), control growth, (C), and test growth in the presence of drug at the various concentration levels (Ai)], the percentage growth was calculated at each of the drug concentration levels. The assays were done with three cellular cancer lines: HeLa, A549 and HEK.
# A and G represent the control values at 0 and 48 h respectively.
# [2] = Stability: platinum drug release after incubation, quantified by ICP-MS; type: physicochemical; details: 48 h incubation with cellular medium at 37° C.
# Experimental: The stability of these conjugates was compared with the stability of the conjugates of the invention. […] The stability tests were based on inductively coupled plasma mass spectroscopy ICP-MS quantifications of platinum drug release after incubation of both systems.
# [3] = Zeta potential of nanoparticles and conjugates; type: physicochemical; details: pH 7.0
# Experimental: The zeta potential of nanoparticles and conjugates was determined using a Malvern ZetaSizer Analyzer (Malvern Instruments, UK). These measurements were performed with control of the pH (7.0).
molecule,measurement,setting,value
"N.N.[Cl][Pt][Cl] [commercial cisplatin, cisplatin, reference compound]",tumour size,A549 lung tumoral cells,reduction of tumour size
same,animal weight (sign of secondary effects),[1],loose of body weight
same,kidney and hepatic dysfunction (preliminary biochemical measurements),[1],did not indicate any kidney and hepatic significant dysfunction
"N.N.O.O.O=[N+]([O-])[O-].O=[N+]([O-])[O-].[Pt+2] [example 3, cis-[Pt(NH3)2(H2O)2](NO3)2]",effect on A549 lung tumoral cells viability (MTT),A549 tumor cells,did not elicit any response
"AuNP(NP:4 nm)-MUA-cisplatin [example 5, reference compound]",release of platinum drug from the nanoparticle,[2],release of platinum drug from the nanoparticle was only observed
AuNP(NP:13 nm)-MUA [example 2.1],effect on A549 lung tumoral cells viability (MTT),A549 tumor cells,did not elicit any response
same,ζ-potential,[3],−65.8 mV
